The target of this assay is T1, Androgen Receptor (Homo sapiens, UniProt P10275).
T1 construct: endogenous in cells; host or cells: VCaP cells
T1 sequence (P10275 1-920): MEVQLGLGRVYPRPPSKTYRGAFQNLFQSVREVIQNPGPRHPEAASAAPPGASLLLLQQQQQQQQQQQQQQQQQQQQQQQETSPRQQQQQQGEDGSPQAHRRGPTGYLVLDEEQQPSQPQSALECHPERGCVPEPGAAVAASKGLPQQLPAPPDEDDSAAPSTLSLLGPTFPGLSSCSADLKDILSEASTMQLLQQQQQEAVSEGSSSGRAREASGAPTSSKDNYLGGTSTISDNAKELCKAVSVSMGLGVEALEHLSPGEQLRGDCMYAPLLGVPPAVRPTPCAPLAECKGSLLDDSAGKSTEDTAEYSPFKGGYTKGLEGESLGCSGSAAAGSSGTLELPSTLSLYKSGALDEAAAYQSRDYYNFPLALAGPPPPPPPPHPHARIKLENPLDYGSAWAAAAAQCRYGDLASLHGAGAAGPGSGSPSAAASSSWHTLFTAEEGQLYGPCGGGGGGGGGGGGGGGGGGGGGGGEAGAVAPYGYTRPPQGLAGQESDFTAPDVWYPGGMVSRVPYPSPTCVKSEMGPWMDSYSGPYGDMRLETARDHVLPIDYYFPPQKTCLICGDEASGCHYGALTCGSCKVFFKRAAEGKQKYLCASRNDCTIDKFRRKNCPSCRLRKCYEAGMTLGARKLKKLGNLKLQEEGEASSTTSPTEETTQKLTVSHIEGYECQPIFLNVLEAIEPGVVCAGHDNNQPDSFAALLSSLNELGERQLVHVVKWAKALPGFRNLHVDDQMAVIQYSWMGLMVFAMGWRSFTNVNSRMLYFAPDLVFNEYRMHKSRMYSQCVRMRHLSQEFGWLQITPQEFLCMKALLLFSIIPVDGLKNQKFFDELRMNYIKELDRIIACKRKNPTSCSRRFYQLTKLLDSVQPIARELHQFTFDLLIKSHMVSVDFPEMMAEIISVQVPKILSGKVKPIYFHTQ
Put plainly: Androgen Receptor ELISA assay (PathScan AR ELISA) in VCaP cells: AR degradation, Dmax and DC50. The assay is classed as cell-based. The procedure: 1. Androgen Receptor ELISA Assay.
The protocols used with VCaP cells are described below. The androgen receptor ELISA assay was performed using PathScan AR ELISA (Cell Signaling Catalog #12850) according to the following assay steps:
VCaP cells are seeded at 30,000 cells/well at a volume of 200 μL/well in VCaP assay medium [Phenol red free RPMI (Gibco Cat #11835-030); 5% Charcoal Stripped (Dextran treated) FBS (Omega Scientific, Cat #FB-04); Pen/Strep Life Technologies (Gibco Cat #: 10378-016); 0.1 nM R1881 (Sigma, Cat #R0908) is added upon the start of the assay, not during initial plating of the cells) in Corning 3904 plates. The cells are grown for a minimum of 3 days.
First, cells are dosed with compounds diluted in 0.1% DMSO—use a polypropylene plate according to the following protocol: (1)(i) make 1000× stock plate in DMSO; (ii) 20 mM stock diluted 1/6.7 with DMSO (5 μL+28.3 μL DMSO)=3 mM into row H; (iii) perform serial dilutions in ½ log doses (10 μL of PROTAC+20 μL DMSO) from row H towards row B. Reserve row A for DMSO; (iv) 7 doses total (final concentration in this 1000× plate will be 3 mM, 1 mM, 333 μM, 111 μM, etc). (2)(i) Make 10× stock plate in media; (ii) transfer 2.5 μL of the 1000× stock to a new 10× stock plate (use 12 channel pipet, start at A (DMSO control) work thru H. When 247.5 μL of media is added to this plate, it will serve as a 10× stock; (iii) make media+1 nM R1881 for making 10× stock plate; (iv) add 247.5 μL of media with 1 nM R1881 to each well of the 10× stock plate, mix.
Then 22 μL of 10× stock is added to cells and incubated for 24 h. 1× Cell Signaling Cell lysis buffer is made (Catalogue #9803; comes with the kit)—prepare for 50 μL/well. Keep on ice. Media is aspirated, and 50 μL 1× cell lysis buffer/well is added. The cells are placed on ice for 10 minutes. The solution is mixed and transferred to PCR plate, and centrifuged at 4C for 10 minutes at 4000 rpm.
5 μL is transferred to fresh plate (use immediately or freeze −80 C); 115 μL ELISA Dilutant is added (0.15 ug/ml-0.075 ug/ml; comes with the PathScan ELISA).
Add 100 μL/well AR Elisa; cover and shake, 37 C for 2 hrs; dump, tap, wash 4×200 μL ELISA wash buffer; add 100 μL/well mouse AR detection Ab; cover and shake, 37 C for 1 hr; dump, tap, wash 4×200 μL ELISA wash buffer; add 100 μL/well anti-mouse—HRP conjugated Ab (comes with the kit); cover and shake, 37 C for 30 min; allow TMB reagent to come to room temperature; dump, tap, wash 4×200 μL Elisa wash buffer; tap; add 100 μL TMB, shake 5 min—while watching color. Add the stop reagent when light blue color develops. Add 100 μL Stop solution; shake and read at 450 nm.
In general terms: ELISA stands for enzyme-linked immunosorbent assay.

Where [1] appears, read: read-out: VCaP DC50; concentration that caused 50% Androgen Receptor degradation, VCaP cells.
Setting [2] is: VCaP, highest percentage of Androgen Receptor degradation observed, VCaP cells; read-out: VCaP Dmax (%).
Setting [3] is: concentration that caused 50% Androgen Receptor degradation, VCaP cells; read-out: VCaP DC50.

Ten molecules from patent US11427548B2 (Arvinas Operations, Inc., priority 2015, dated 2022) can be followed below.

Where two headings read alike, the source gives them in different places.

Broadly, the Dmax is the greatest extent of degradation seen. The DC50 is the midpoint of the concentration-degradation curve. As for `Cc1ncoc1-c1ccc(CNC(=O)[C@@H]2C[C@@H](O)CN2C(=O)[C@@H](NC(=O)COCCCOCCCCOc2ccc(N3C(=S)N(c4ccc(C#N)c(Cl)c4)C(=O)C3(C)C)cc2)C(C)C)cc1` [Example 39], for the setting “VCaP, read-out: VCaP Dmax (%)”, the Dmax is 26 to 50%. The DC50 under setting [1] was under 0.05 µM.

Regarding `Cc1ncsc1-c1ccc(CNC(=O)[C@@H]2C[C@@H](O)CN2C(=O)[C@@H](NC(=O)COCCCOCCCCOc2ccc(N3C(=S)N(c4ccc(C#N)c(C(F)(F)F)c4)C(=O)C3(C)C)cn2)C(C)(C)C)cc1` [Example 40, (2S,4R)-1-[(2S)-2-[2-(3-{4-[(5-{3-[4-cyano-3-(trifluoromethyl)phenyl]-5,5-dimethyl-4-oxo-2-sulfanylideneimidazolidin-1-yl}pyridin-2-yl)oxy]butoxy}propoxy)acetamido]-3,3-dimethylbutanoyl]-4-hydroxy-N-{[4-(4-methyl-1,3-thiazol-5-yl)phenyl]methyl}pyrrolidine-2-carboxamide], the maximal degradation (Dmax) (VCaP, read-out: VCaP Dmax (%)) lay in the range of 51 to 70%. Further, the DC50 under setting [1] was under 0.05 µM.

Regarding `Cc1ncsc1-c1ccc(CNC(=O)[C@@H]2C[C@@H](O)CN2C(=O)[C@@H](NC(=O)COCCCOCCCCOc2ccc(N3C(=S)N(c4ccc(C#N)c(Cl)c4)C(=O)C3(C)C)cc2F)C(C)(C)C)cc1` [Example 41, (2S,4R)-1-[(2S)-2-{2-[3-(4-{4-[3-(3-chloro-4-cyanophenyl)-5,5-dimethyl-4-oxo-2-sulfanylideneimidazolidin-1-yl]-2-fluorophenoxy}butoxy)propoxy]acetamido}-3,3-dimethylbutanoyl]-4-hydroxy-N-{[4-(4-methyl-1,3-thiazol-5-yl)phenyl]methyl}pyrrolidine-2-carboxamide], for the setting “VCaP, read-out: VCaP Dmax (%)”, the Dmax is over 71%. Further, the DC50 under setting [1] was under 0.05 µM.

As for `COc1cc(N2C(=O)C(C)(C)N(c3ccc(OCCCCOCCCOCC(=O)N[C@H](C(=O)N4C[C@H](O)C[C@H]4C(=O)NCc4ccc(-c5scnc5C)cc4)C(C)(C)C)c(F)c3)C2=S)ccc1C#N` [Example 42, (2S,4R)-1-[(2S)-2-{2-[3-(4-{4-[3-(4-cyano-3-methoxyphenyl)-5,5-dimethyl-4-oxo-2-sulfanylideneimidazolidin-1-yl]-2-fluorophenoxy}butoxy)propoxy]acetamido}-3,3-dimethylbutanoyl]-4-hydroxy-N-{[4-(4-methyl-1,3-thiazol-5-yl)phenyl]methyl}pyrrolidine-2-carboxamide], under setting [2], the Dmax lay in the range of 51 to 70%. Also, the DC50 under setting [3] was under 0.05 µM.

As to `Cc1ncsc1-c1ccc(CNC(=O)[C@@H]2C[C@@H](O)CN2C(=O)[C@@H](NC(=O)COCCCOCCCCOc2ccc(N3C(=S)N(c4ccc(C#N)c(C(F)(F)F)c4)C(=O)C34CCOCC4)cc2)C(C)(C)C)cc1` [Example 43, (2S,4R)-1-[(2S)-2-(2-{3-[4-(4-{3-[4-cyano-3-(trifluoromethyl)phenyl]-4-oxo-2-sulfanylidene-8-oxa-1,3-diazaspiro[4.5]decan-1-yl}phenoxy)butoxy]propoxy}acetamido)-3,3-dimethylbutanoyl]-4-hydroxy-N-{[4-(4-methyl-1,3-thiazol-5-yl)phenyl]methyl}pyrrolidine-2-carboxamide], where the note is “VCaP, read-out: VCaP Dmax (%)”, the Dmax lay in the range of 51 to 70%. Moreover, the DC50 under setting [1] was under 0.05 µM.

For `Cc1ncoc1-c1ccc(CNC(=O)[C@@H]2C[C@@H](O)CN2C(=O)[C@@H](NC(=O)COCCCOCCCCOc2ccc(N3C(=S)N(c4ccc(C#N)c(Cl)c4)C(=O)C3(C)C)cc2F)C(C)(C)C)cc1` [Example 44, (2S,4R)-1-[(2S)-2-{2-[3-(4-{4-[3-(3-chloro-4-cyanophenyl)-5,5-dimethyl-4-oxo-2-sulfanylideneimidazolidin-1-yl]-2-fluorophenoxy}butoxy)propoxy]acetamido}-3,3-dimethylbutanoyl]-4-hydroxy-N-{[4-(4-methyl-1,3-oxazol-5-yl)phenyl]methyl}pyrrolidine-2-carboxamide], where the note is “VCaP, read-out: VCaP Dmax (%)”, the Dmax was over 71%. Further, the DC50 under setting [1] is under 0.05 µM.

Consider `CC(C)(C)[C@H](NC(=O)COCCCOCCCCOc1ccc(N2C(=S)N(c3ccc(C#N)c(Cl)c3)C(=O)C2(C)C)cc1F)C(=O)N1C[C@H](O)C[C@H]1C(=O)NCc1ccc(-c2cnco2)cc1` [Example 45, (2S,4R)-1-[(2S)-2-{2-[3-(4-{4-[3-(3-chloro-4-cyanophenyl)-5,5-dimethyl-4-oxo-2-sulfanylideneimidazolidin-1-yl]-2-fluorophenoxy}butoxy)propoxy]acetamido}-3,3-dimethylbutanoyl]-4-hydroxy-N-{[4-(1,3-oxazol-5-yl)phenyl]methyl}pyrrolidine-2-carboxamide], for which the Dmax (VCaP, read-out: VCaP Dmax (%)) is over 71%. Further, the DC50 under setting [1] was under 0.05 µM.

On to `CC(C)(C)[C@H](NC(=O)COCCCOCCCCOc1ccc(N2C(=S)N(c3ccc(C#N)c(Cl)c3)C(=O)C2(C)C)cc1F)C(=O)N1C[C@H](O)C[C@H]1C(=O)NCc1ccc(-c2cncs2)cc1` [Example 46, (2S,4R)-1-[(2S)-2-{2-[3-(4-{4-[3-(3-chloro-4-cyanophenyl)-5,5-dimethyl-4-oxo-2-sulfanylideneimidazolidin-1-yl]-2-fluorophenoxy}butoxy)propoxy]acetamido}-3,3-dimethylbutanoyl]-4-hydroxy-N-{[4-(1,3-thiazol-5-yl)phenyl]methyl}pyrrolidine-2-carboxamide], for which, under “VCaP, read-out: VCaP Dmax (%)”, the Dmax was over 71%. Also, under setting [1], the DC50 was under 0.05 µM.

As for `CC(C)(C)[C@H](NC(=O)COCCCOCCCCOc1ccc(N2C(=S)N(c3cnc(C#N)c(C(F)(F)F)c3)C(=O)C2(C)C)cc1F)C(=O)N1C[C@H](O)C[C@H]1C(=O)NCc1ccc(-c2cnco2)cc1` [Example 47, (2S,4R)-1-[(2S)-2-(2-{3-[4-(4-{3-[6-cyano-5-(trifluoromethyl)pyridin-3-yl]-5,5-dimethyl-4-oxo-2-sulfanylideneimidazolidin-1-yl}-2-fluorophenoxy)butoxy]propoxy}acetamido)-3,3-dimethylbutanoyl]-4-hydroxy-N-{[4-(1,3-oxazol-5-yl)phenyl]methyl}pyrrolidine-2-carboxamide], the Dmax under setting [2] is 51 to 70%. For the same molecule, the DC50 under setting [3] is under 0.05 µM.

Regarding `Cc1ncsc1-c1ccc(CNC(=O)[C@@H]2C[C@@H](O)CN2C(=O)[C@@H](NC(=O)COCCCOCCCCOc2ccc(N3C(=S)N(c4cnc(C#N)c(C(F)(F)F)c4)C(=O)C3(C)C)cc2F)C(C)(C)C)cc1` [Example 48, (2S,4R)-1-[(2S)-2-(2-{3-[4-(4-{3-[6-cyano-5-(ttifluoromethyl)pyridin-3-yl]-5,5-dimethyl-4-oxo-2-sulfanylideneimidazolidin-1-yl}-2-fluorophenoxy)butoxy]propoxy}acetamido)-3,3-dimethylbutanoyl]-4-hydroxy-N-{[4-(4-methyl-1,3-thiazol-5-yl)phenyl]methyl}pyrrolidine-2-carboxamide], the Dmax under setting [2] was in the range of 51 to 70%. Further, under setting [3], the DC50 is under 0.05 µM.
